Assays:
[1] = system: Squash (Cucurbita maxima) cv ‘Delica’; assay: Trial 3 leaf health rating and phyto-toxicity; assay type: in vivo; set-up: key: A: Perfect condition - no abiotic or biotic blemishes.; B: Small blemishes e.g. chlorotic patches, rubbing, insect damage; C: Severe/advanced chlorosis, necrosis or leaf distortion; D: Leaf dead
Procedure: Qualitative assessments of leaf health/condition were made at the same time as disease severity assessments, using the arbitrary scale described below.
Leaf health ratings were assessed using the criteria described in Table 4. Each value presented in Table 12 is a median value rather than an arithmetic mean.

[2] = system: Botrytis cinerea, Cladosporium cladosporiodes, and Monilinia fructicola spores; assay: Spore germination inhibition, overall rating over the three fungi; assay type: cell-based; conditions: sum of all the germination scores; maximum 12 (greatest inhibition), minimum 0
Procedure: (§1) The effect of selected treatments on the germination of three other important horticultural fungi, Botrytis cinerea (causal agent of grey mould on grapes, kiwifruit, tomatoes, strawberries, etc), Monilinia fructicola (causal agent of brown rot on stonefruit), and Cladosporium cladosporiodes (one of the fungi that can cause sooty mould) were also assessed using the 96-multiwell assay of Wilson et al (10).
The Overall Rating is the sum of all the germination scores for each treatment (maximum possible value: 12 (greatest inhibition); minimum: 0 (no inhibition)).

[3] = system: Botrytis cinerea spores; assay: Spore germination inhibition, 96-multiwell assay; assay type: cell-based; set-up: key: ****: No germination (score 4); ***: Slight germination (3); **: Moderate germination (2); *: Germination, less than control (1); —: No activity = germination same as the control (score 0); conditions: after 24 hours incubation at 19° C.
Procedure: as §1

[4] = system: Monilinia fructicola spores; assay: Spore germination inhibition, 96-multiwell assay; assay type: cell-based; set-up: key: ****: No germination (score 4); ***: Slight germination (3); **: Moderate germination (2); *: Germination, less than control (1); —: No activity = germination same as the control (score 0); conditions: after 24 hours incubation at 19° C.
Procedure: as §1

[5] = system: Cladosporium cladosporiodes spores; assay: Spore germination inhibition, 96-multiwell assay; assay type: cell-based; set-up: key: ****: No germination (score 4); ***: Slight germination (3); **: Moderate germination (2); *: Germination, less than control (1); —: No activity = germination same as the control (score 0); conditions: after 24 hours incubation at 19° C.
Procedure: as §1

[6] = system: cucurbit PM pathogen Sphaerotheca fuliginea; assay: Trial 3 main treatments, PM disease severity on ‘Delica’ squash leaves; assay type: in vivo
Procedure: Squash (Cucurbita maxima) cv ‘Delica’ were raised and the first true leaf on each plant was artificially inoculated as in Trial 1.
Treatment applications were normally at 7-day intervals (although 14 and 21 day intervals were also used in Trial 3) and involved spraying all leaves to run-off (approximately 5 ml per leaf) using hand-held mister-bottles. The first application commenced 3-4 days after artificial inoculation (except for elicitor treatments in Trial 3), when the non-inoculated leaves on plants were still largely disease-free, and plants had up to 8 true leaves (i.e. were 5-6 weeks old).
Disease severity on true leaves 1-8 was rated weekly or fortnightly as discussed above.
Data were analysed as a repeated measures design (RMD) to determine the treatment effect on disease severity over time. Treatment differences at final disease assessment were also assessed as a randomised block design (RBD), by analysis of variance (ANOVA), with means separation by Fisher's Least Significant Difference (LSD) (P<0.05), using SAS software, version 8.01 TS (SAS Institute, Cary, N.C.).
Eight replicate squash plants per treatment (1 replicate per block) were assessed.
The first true leaf of each plant was artificially inoculated with PM, while all other leaves on the plant were allowed to infect naturally. Elicitors (treatments 13-15) were first applied 5 days before artificial inoculation, to allow time for induction of host defences prior to advent of the PM fungus, and every three weeks thereafter. […] All other treatments were first applied 3 days after artificial inoculation and at weekly (treatments 1-4, 7-8, 10-12, 16-20), fortnightly (treatment 5), or 3 weekly intervals (treatments 6 and 9) thereafter.
Treatment effect over time at 0, 2, 4, 6 and 7 weeks was assessed.

[7] = system: cucurbit PM pathogen Sphaerotheca fuliginea; assay: Trial 3 additional treatments, PM disease severity on ‘Delica’ squash leaves; assay type: in vivo; conditions: non-inoculated leaves (FIG. 7)
Source text: Treatments were first applied 3 days after artificial inoculation of leaf 1, and at weekly intervals thereafter. There were 4 replicates per treatment, with two replicates per table per glasshouse.

Molecule | leaf health rating ([1]; Trial 3 main, non-inoculated leaves after 7 weeks of treatment application, median value) | Overall Rating [2] | Germination inhibition, Botrytis [3] | Germination inhibition, Monilinia [4] | Germination inhibition, Clado. [5] | course of PM disease over time ([6]; inoculated leaves) | PM Disease Rating ([6]; inoculated leaves, 0 wks, scale 0-6 of Table 1) | PM Disease Rating ([6]; inoculated leaves, 2 wks) | PM Disease Rating ([6]; inoculated leaves, 4 wks) | PM Disease Rating ([6]; inoculated leaves, 6 wks) | PM Disease Rating ([6]; inoculated leaves, 7 wks) | course of natural PM infections over time ([6]; non-inoculated leaves, 0-7 weeks) | PM Disease Rating ([6]; non-inoculated leaves, 0 wks, scale 0-6 of Table 1) | PM Disease Rating ([6]; non-inoculated leaves, 2 wks) | PM Disease Rating ([6]; non-inoculated leaves, 4 wks) | PM Disease Rating ([6]; non-inoculated leaves, 6 wks) | PM Disease Rating ([6]; non-inoculated leaves, 7 wks) | leaf health rating ([1]; Trial 3 additional, non-inoculated leaves, after 7 weeks) | course of PM disease severity over time [7]
CCCCC/C=C\C/C=C\CCCCCCCC(=O)O [Linol, Linoleic acid] | F (More than 20% of the leaf area is dead) | 0 | — | — | — | disease increased steadily throughout the trial | 2.63 | 5.25 | 5.88 | 6.00 | 6.00 | rapid breakdown in protective activity | 0.63 | 2.77 | 5.56 | 6.00 | 6.00 |  | 
Di-glycerine-mono-laurate [DGML] |  | 10 | ** | **** | **** |  |  |  |  |  |  |  |  |  |  |  |  | E | increased significantly over time
